Here are results for one molecule from patent publication US20240342348A1, “MEDICAL DEVICES INCLUDING THERAPEUTIC COATINGS FOR LOCAL DELIVERY OF A DIRECT ANTICOAGULANT” (Boston Scientific Scimed, Inc., priority 2023, published 2024).

Data set [1] is described as follows: Solubility of crystalline drug in water. The class given is physicochemical.
The conditions of data set [2]: crystalline drug; cited from earlier work.
In another data set the test system is PTS. The conditions noted are these: oral; cited from earlier work.

In the case of `O=C(NC[C@H]1CN(c2ccc(N3CCOCC3=O)cc2)C(=O)O1)c1ccc(Cl)s1` [rivaroxaban, (S)-5-Chloro-N-((2-oxo-3-(4-(3-oxomorpholino)phenyl)oxazolidin-5-yl)methyl)thiophene-2-carboxamide], in data set [1], the “water solubility relative to paclitaxel and everolimus” value is on record as “approximately 10 times”. Moreover, in data set [2], the solubility in water result is on record as “about 3 μg drug per mL water”. In addition, the “risk of PTS” value with PTS was “significantly reduces the risk of PTS”.
